# Data: patent US7238669B2, “Phage-display peptides as novel antimicrobial agents against Haemophilus influenzae” (priority 2002, dated 2007)
# How the values were obtained:
# Int-1 strain of NTHi = experiment: Inhibition of Int-1 growth by phage-displayed peptides (overnight in sBHI broth, OD630 and colony counts); assay type: cell-based, Haemophilus influenzae; settings: for MIC concentration resulting in no bacterial growth: FIGS. 3A and 3B
# Method: The next day, the optical densities of the bacterial cultures were evaluated by direct measurement of the optical densities at OD630 nm.
# Int-1, a non-typeable clinical isolate, was isolated in 1991 from the blood of a child with clinical symptoms of meningitis. It is virulent in rat models and is able to survive in human serum. Kw20, a non-typeable strain, was isolated in 1954. R3001, a non-typeable clinical isolate, was isolated from a bronchial lavage of a cystic fibrosis patient. R2140, is a non-typeable clinical isolate. R538 is a Haemophilus influenzae type b ATCC strain No. 9795. E1a is a type b Haemophilus influenzae clinical isolate.
# NTHi = experiment: Microscopic examination of cell membrane integrity; assay type: cell-based, Haemophilus influenzae; settings: microscopic results
# Enterococcus faecialis [1] = experiment: Growth of other bacterial species in presence of hi3/17; assay type: cell-based; settings: FIG. 4
# Method: (§1) (Salmonella), Enterococcus faecialis (E. faec.), Staphylococcus aureus (S. aur.) and Pseudomonas aeruginosa (P. aeru.). One hundred and fifty μl of the test bacteria were incubated in the presence of either hi3/17, f88 unselected phage display library in sBHI broth (supplemented with 10 μg/mL heme and NAD+) or control sBHI at 37° C. The next day, the optical densities of the bacterial cultures were evaluated by direct measurement of the optical densities at OD630 nm. Dilutions of the bacteria were incubated on sBHI agar plates to determine the total number of colonies per well.
# Staphylococcus aureus = experiment: as above; assay type: cell-based; settings: FIG. 4
# Method: as §1
# Proteus [2] = experiment: as above; assay type: cell-based, Proteus mirabilis; settings: FIG. 4
# Method: as §1
# Proteus [3] = experiment: Binding to bacteria via ELISA; parameters: species or system Proteus mirabilis
# Enterococcus faecialis [4] = experiment: Binding to bacteria via ELISA
Sequence,MIC (Int-1 strain of NTHi) [virions per μl],bactericidal activity against Int-1 (Int-1 strain of NTHi),greater antimicrobial activity towards Int-1 compared with Group 2 phage displayed peptides (Int-1 strain of NTHi),MIC concentration resulting in no bacterial growth (Int-1 strain of NTHi),effect on cell membrane integrity of NTHi (NTHi),antimicrobial activity against Enterococcus faecialis (Enterococcus faecialis [1]),inhibition of growth of Staphylococcus aureus (Staphylococcus aureus),antimicrobial activity against Proteus (Proteus [2]),binding via ELISA (Proteus [3]),binding via ELISA (Enterococcus faecialis [4])
KQRTSIRATEGCLPS [hi3/17],~1e10,bactericidal,over 5 fold,3.64×10^9 virions,altered the cell membrane integrity,no activity,completely inhibit the growth,no activity,binding being detectable,binding being detectable
VVFLSSRNSAVFTDF [fUSE5/2],,bactericidal,,2.4×10^10 virions,altered the cell membrane integrity,,,,,
